# Data: US12478081B2, “Application of aspartic acid derivative in preparing animal feed additive” (ANIPHA TECHNOLOGIES PTY LTD, priority 2018, dated 2025)
# Marks after values point to notes of the source that are not given here.
# Tests used:
# [1] = Thermal stability of compounds at 60° C. (HPLC content of raw material and 2% premix); format: physicochemical; details: for Detection result of the content of test sample (%) Day 5: Day 5, relative to Day 0; for Detection result of the content of test sample (%) Day 10: Day 10, relative to Day 0
# Procedure: The variations of the contents of the main ingredient of the aspartic acid derivative raw material and the main ingredient of a premix containing 2% mass fraction of the aspartic acid derivative (hereinafter referred to as 2% premix) over time were investigated under the conditions of stability test at 60° C.
# Experimental apparatus: drug stability incubator, Waters high-performance liquid chromatograph (HPLC), etc.
# Test samples: N-carbamoyl-DL-aspartic acid (compound 1), diethyl N-carbamoyl-DL-aspartate (compound 2), Sodium N-carbamoyl-DL-aspartate (compound 3), Calcium N-carbamoyl-DL-aspartate (compound 4), Zinc N-carbamoyl-DL-aspartate (compound 5), Copper N-carbamoyl-DL-aspartate (compound 6), Iron N-carbamoyl-DL-aspartate (compound 7), N-glycyl-DL-aspartic acid (compound 8), N-(4-aminobutyryl)-DL-aspartic acid (compound 9), N-(10-aminodecanoyl)-DL-aspartic acid (compound 10), N-(14-aminomyristoyl)-DL-aspartic acid (compound 11).
# Preparation of standard solution: 50 mg of the test sample raw material was ultrasonically dissolved in 50 mL of water to obtain a working reserve solution. An appropriate amount of the working reserve solution was taken and diluted with water respectively to concentrations of 125 ppm, 250 ppm, 500 ppm, and 1000 ppm for HPLC testing. It was checked whether the sample concentrations are in a linear relationship with the peak area response values in HPLC, and a standard curve was established.
# Preparation of test solution: An appropriate amount of the test sample raw material and an appropriate amount of a premix containing 2% mass fraction of the test sample (hereinafter referred to as 2% premix) were separately ultrasonically dissolved in an appropriate amount of water to form a 1000 ppm solution, which is filtered through a 0.22 µm filter membrane and then analyzed by HPLC.
# HPLC analysis conditions: chromatographic column: Waters C18 column (250 mm×4.6 mm, 5 μm); mobile phase: 0.05% phosphoric acid:methanol=95:5 (v:v) (raw material); 0.05% phosphoric acid: methanol (gradient elution); methanol: 5%→40% (0-15 min) curve 6, 40%→5% (15-16 min) curve 1, 5% (16-23 min) curve 1, (premix, feed); detection wavelength: 210 nm; column temperature: 25° C.; sample size: 20 μL; flow rate: 1 mL/min.
# Test method: The test sample raw material and its 2% premix were placed in a culture plate, spread into a thin layer of <5 mm, and placed at 60° C. Samples were taken on the day 5 and ? day 10 for HPLC detection. Each sample was sampled three times in parallel.
# weaned piglets = experiment: Breeding test: production performance of weaned piglets; format: in vivo, Duroc×Landrace×Yorkshire cross-bred weaned piglets; details: weaned piglets, 1000 ppm metal ion salt in basal daily ration, 40 days
# Text: From 95 litters of 28±2 days old Duroc×Landrace×Yorkshire cross-bred weaned piglets, 360 clinically healthy piglets with similar body weights were selected as test pigs, which were randomly divided into 12 groups, with 3 replications per group and 10 pigs (half of male and female) per replication. The piglets were attracted to the food trough at the age of 7 days, and the hog house for 28-day-old weaned pigs has a cement floor, steel fence, good ventilation, and suitable temperature. The pigpens and utensils were sterilized before the test.
# During the test period, the test pigs were free-stall housed in the same pigpen under the same feeding and management conditions, and were free to drink water and eat feed. The hog house was cleaned once a day, and the floor is washed once every three days to maintain clean and hygienic conditions. The test pigs were fed three times a day. The test groups include control and test groups. Group I is the control group, in which only the basal daily ration was fed to the piglets. […] 1000 ppm of a the aspartic acid derivative metal ion salt was added into the basal daily ration for the piglets in the groups VIII-XII, as shown in Table 2. No other antioxidant ingredients or growth promoters were added for the test groups during the entire feeding process. The test period was 40 days.
# The test pigs were weighed during 7:00 to 9:00 in the morning of Day 0 and Day 40 after the start of the test. During the test period, the feed intake and health status of the piglets were observed every day, the remaining daily ration was weighed, the feed consumption was recorded, and the average daily feed intake (ADFI, g/d*each pig), the average daily gain (ADG, g/d*each pig), and the feed conversion ratio (FCR) were calculated. Calculation formulas are as follows: […]
# The test data was statistically analyzed using SPSS18 software. First, a one-way analysis of variance (ANOVA) was performed on the data. If the difference between treatments is significant, Duncan's method was used for multiple comparisons, and the significance level was 0.05.
Compound,Detection result of the content of test sample (%) Day 5 ([1]; 2% premix),Detection result of the content of test sample (%) Day 10 ([1]; 2% premix),Detection result of the content of test sample (%) Day 5 ([1]; Raw material),Detection result of the content of test sample (%) Day 10 ([1]; Raw material),ADFI (g/d*each pig) (weaned piglets),ADG (g/d*each pig) (weaned piglets),FCR (weaned piglets)
"NC(=O)NC(CC(=O)[O-])C(=O)[O-].[Cu+2] (racemic) [Compound 6, Copper N-carbamoyl-DL-aspartate]",98.28%,97.94%,99.91%,98.31%,329 ± 13^a g/d*each pig,156 ± 1^c g/d*each pig,2.11 ± 0.07
"NC(=O)NC(CC(=O)[O-])C(=O)[O-].[Fe+2] (racemic) [Compound 7, Iron N-carbamoyl-DL-aspartate]",96.74%,94.98%,97.63%,96.01%,330 ± 11^a g/d*each pig,153 ± 1^bc g/d*each pig,2.15 ± 0.06
"NC(=O)NC(CC(=O)[O-])C(=O)[O-].[Ca+2] (racemic) [Compound 4, Calcium N-carbamoyl-DL-aspartate]",98.93%,97.99%,101.54%,101.87%,333 ± 8^a g/d*each pig,157 ± 0^c g/d*each pig,2.13 ± 0.05
"NC(=O)NC(CC(=O)[O-])C(=O)[O-].[Zn+2] (racemic) [Compound 5, Zinc N-carbamoyl-DL-aspartate]",96.89%,96.36%,99.76%,98.47%,418 ± 19^c g/d*each pig,198 ± 3^6 g/d*each pig,2.11 ± 0.07
"NC(=O)NC(CC(=O)[O-])C(=O)[O-].[Na+].[Na+] (racemic) [Compound 3, Sodium N-carbamoyl-DL-aspartate]",99.33%,99.21%,103.02%,103.53%,388 ± 11^bc g/d*each pig,182 ± 2^d g/d*each pig,2.13 ± 0.04
